Here are results for 29 compounds from patent publication US10239887B2, “Positive allosteric modulators of the muscarinic acetylcholine receptor M4” (Vanderbilt University, priority 2016, dated 2019).

The target in this experiment is T1, human mAChR M4 (Homo sapiens, UniProt P08173).
T1 sequence (P08173 1-479): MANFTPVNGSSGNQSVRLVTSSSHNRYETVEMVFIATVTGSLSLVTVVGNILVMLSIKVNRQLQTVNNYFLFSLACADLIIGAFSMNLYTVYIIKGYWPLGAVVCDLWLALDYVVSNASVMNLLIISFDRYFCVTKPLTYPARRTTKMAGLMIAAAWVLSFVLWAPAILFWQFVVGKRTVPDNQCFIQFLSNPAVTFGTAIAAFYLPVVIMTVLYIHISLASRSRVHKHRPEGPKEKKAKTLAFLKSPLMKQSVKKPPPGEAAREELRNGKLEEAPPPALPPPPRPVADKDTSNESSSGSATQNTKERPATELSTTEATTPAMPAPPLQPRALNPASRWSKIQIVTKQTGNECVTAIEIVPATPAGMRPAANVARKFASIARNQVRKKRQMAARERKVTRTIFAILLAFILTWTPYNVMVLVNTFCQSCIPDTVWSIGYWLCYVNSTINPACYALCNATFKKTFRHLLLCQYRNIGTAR
The experiment can be described thus: mAChR M4 cell-based functional assay (calcium flux), human M4. The conditions noted are these: Table 10; for EC50: Human M4 EC50 (nM), calcium flux, PAM activity with EC20 acetylcholine; for Emax: % ACh maximum at 30 μM. On the technique in general: A change in cytosolic calcium serves as a functional read-out for many receptors and channels.

For the compound `Cc1nnc2sc3c(NCc4ccc(F)c(C(=O)NCC(C)C)c4)ncnc3c2c1C` [Compound 180, 5-[[(3,4-dimethylpyrimido [4′,5′:4,5]thieno[2,3-c]pyridazin-8-yl)amino]methyl]-2-fluoro-N-isobutyl-benzamide], the EC50 is 1210 nM and the maximal response (Emax) was found to be 97.6%.

In the case of `Cc1nnc2sc3c(NCc4ccc(F)c(C(=O)NC5CC5(C)C)c4)ncnc3c2c1C` (stereo not drawn) [Compound 181, N-(2,2-dimethylcyclopropyl)-5-[[(3,4-dimethylpyrimido [4′,5′:4,5]thieno[2,3-c]pyridazin-8-yl)amino]methyl]-2-fluoro-benzamide], the EC50 is 1160 nM and the Emax was 96.5%.

On to `Cc1nnc2sc3c(NCc4ccc(F)c(C(=O)N[C@H](C)C(F)(F)F)c4)ncnc3c2c1C` [Compound 182, 5-[[(3,4-dimethylpyrimido [4′,5′:4,5]thieno[2,3-c]pyridazin-8-yl)amino]methyl]-2-fluoro-N-[(1R)-2,2,2-trifluoro-1-methyl-ethyl]benzamide], for which the EC50 came to 1170 nM and the Emax came to 97.2%.

As for `Cc1nnc2sc3c(NCc4ccc(F)c(C(=O)NC5CC(F)C5)c4)ncnc3c2c1C` (stereo not drawn) [Compound 183, 5-[[(3,4-dimethylpyrimido [4′,5′:4,5]thieno[2,3-c]pyridazin-8-yl)amino]methyl]-2-fluoro-N-(3-fluorocyclobutyl) benzamide], the EC50 came to 505 nM and the Emax was found to be 99.7%.

Regarding `Cc1nnc2sc3c(NCc4ccc(F)c(C(=O)NC5CC(F)(F)C5)c4)ncnc3c2c1C` [Compound 184, N-(3,3-difluorocyclobutyl)-5-[[(3,4-dimethylpyrimido [4′,5′:4,5]thieno[2,3-c]pyridazin-8-yl)amino]methyl]-2-fluoro-benzamide], the EC50 is 340 nM and the Emax worked out at 107%.

For the compound `Cc1nnc2sc3c(NCc4ccc(F)c(C(=O)NC(C)C(C)(C)CO)c4)ncnc3c2c1C` (stereo not drawn) [Compound 185, 5-[[(3,4-dimethylpyrimido [4′,5′:4,5]thieno[2,3-c]pyridazin-8-yl)amino]methyl]-2-fluoro-N-(3-hydroxy-1,2,2-trimethyl-propyl)benzamide], the EC50 came out at 794 nM and the Emax was determined as 94.2%.

In the case of `COCCNC(=O)c1cc(CNc2ncnc3c2sc2nnc(C)c(C)c23)ccc1F` [Compound 186, 5-[[(3,4-dimethylpyrimido [4′,5′:4,5]thieno[2,3-c]pyridazin-8-yl)amino]methyl]-2-fluoro-N-(2-methoxyethyl)benzamide], the EC50 was found to be 687 nM and the Emax stood at 86.8%.

Regarding `CNC(=O)c1cc(CNc2ncnc3c2sc2nnc(C)c(C)c23)ccc1F` [Compound 187, 5-[[(3,4-dimethylpyrimido [4′,5′:4,5]thieno[2,3-c]pyridazin-8-yl)amino]methyl]-2-fluoro-N-methyl-benzamide], the EC50 turned out to be 154 nM and the maximal effect (Emax) was 87.6%.

Turning to `Cc1nnc2sc3c(NCc4ccc(C(C)(C)O)c(Cl)c4)ncnc3c2c1C` [Compound 188, 2-[2-chloro-4-[[(3,4-dimethylpyrimido [4′,5′:4,5]thieno[2,3-c]pyridazin-8-yl)amino]methyl]phenyl]propan-2-ol], the EC50 stood at 775 nM and the maximal effect (Emax) is 79.8%.

For the compound `Cc1nnc2sc3c(NCc4ccc(C(C)(C)O)cc4Cl)ncnc3c2c1C` [Compound 189, 2-[3-chloro-4-[[(3,4-dimethylpyrimido [4′,5′:4,5]thieno[2,3-c]pyridazin-8-yl)amino]methyl]phenyl]propan-2-ol], the EC50 came out at 831 nM and the Emax was 94.3%.

Take `Cc1nnc2sc3c(NCc4ccc(-c5cccs5)cc4)ncnc3c2c1C` [Compound 190, 3,4-dimethyl-N-[[4-(2-thienyl)phenyl]methyl] pyrimido[4′,5′:4,5]thieno [2,3-c]pyridazin-8-amine]: the EC50 came out at 3210 nM and the maximum response (Emax) is 90.8%.

On to `Cc1nnc2sc3c(NCc4ccc(-c5ccc[nH]5)cc4)ncnc3c2c1C` [Compound 191, 3,4-dimethyl-N-[[4-(1H-pyrrol-2-yl)phenyl]methyl]pyrimido[4′,5′:4,5] thieno[2,3-c]pyridazin-8-amine], for which the EC50 was found to be 837 nM and the Emax came out at 56.9%.

`Cc1nnc2sc3c(NCc4ccc(-c5ccn(C)n5)cc4)ncnc3c2c1C` [Compound 192, 3,4-dimethyl-N-[[4-(1-methylpyrazol-3-yl)phenyl]methyl]pyrimido [4′,5′:4,5]thieno[2,3-c] pyridazin-8-amine]: the EC50 is 851 nM and the Emax worked out at 85.9%.

Consider `Cc1nnc2sc3c(NCc4ccc(-c5ccnn5C)cc4)ncnc3c2c1C` [Compound 193, 3,4-dimethyl-N-[[4-(2-methylpyrazol-3-yl)phenyl]methyl]pyrimido [4′,5′:4,5]thieno[2,3-c] pyridazin-8-amine], for which the EC50 amounted to 439 nM and the Emax came to 82%.

`COCC1CN(c2ncnc3c2sc2nc(C)cc(C)c23)C1` [Compound 194, 4-[3-(methoxymethyl)azetidin-1-yl]-7.9-dimethyl-pyrido [3′,2′:4,5]thieno[3,2-d] pyrimidine]: the EC50 was 762 nM and the Emax stood at 88.7%.

Take `Cc1cc(C)c2c(n1)sc1c(N3CC4(COC4)C3)ncnc12` [Compound 195, 6-(7,9-dimethylpyrido [3′,2′:4,5]thieno[3,2-d]pyrimidin-4-yl)-2-oxa-6-azaspiro[3.3]heptane]: the Emax turned out to be 76.3%.

Regarding `Cc1cc(C)c2c(n1)sc1c(N3CC4CC4C3)ncnc12` (stereo not drawn) [Compound 196, 4-(3-azabicyclo [3.1.0]hexan-3-yl)-7,9-dimethyl-pyrido [3′,2′:4,5]thieno[3,2-d] pyrimidine], the EC50 was found to be 453 nM and the Emax was determined as 74.5%.

On to `Cc1cc(C)c2c(n1)sc1c(N3CCC3)ncnc12` [Compound 197, 4-(azetidin-1-yl)-7,9-dimethyl-pyrido [3′,2′:4,5]thieno[3,2-d] pyrimidine], for which the EC50 worked out at 172 nM and the Emax is 58.7%.

On to `Cc1cc(C)c2c(n1)sc1c(N3CC(F)(F)C3)ncnc12` [Compound 198, 4-(3,3-difluoroazetidin-1-yl)-7,9-dimethyl-pyrido[3′,2′:4,5] thieno[3,2-d]pyrimidine], for which the EC50 was determined as 456 nM and the Emax is 68.7%.

With `Cc1cc(C)c2c(n1)sc1c(N3CCCC3)ncnc12` [Compound 199, 7,9-dimethyl-4-pyrrolidin-1-yl-pyrido[3′,2′:4,5] thieno[3,2-d]pyrimidine], the EC50 is 277 nM and the Emax came to 67.3%.

`Cc1cc(C)c2c(n1)sc1c(NC3CCC3)ncnc12` [Compound 200, N-cyclobutyl-7,9-dimethyl-pyrido [3′,2′:4,5]thieno[3,2-d] pyrimidin-4-amine]: the EC50 was 359 nM and the Emax amounted to 75.5%.

`Cc1cc(C)c2c(n1)sc1c(N3CC(c4ccncc4)C3)ncnc12` [Compound 201, 7,9-dimethyl-4-[3-(4-pyridyl)azetidin-1-yl] pyrido[3′,2′:4,5]thieno [3,2-d]pyrimidine]: the EC50 came to 341 nM and the Emax was 66.5%.

`COc1ccc(C2CC2Nc2ncnc3c2sc2nc(C)cc(C)c23)cc1` (stereo not drawn) [Compound 202, N-[2-(4-methoxyphenyl)cyclopropyl]-7,9-dimethyl-pyrido [3′,2′:4,5]thieno[3,2-d] pyrimidin-4-amine]: the EC50 was 1640 nM and the Emax amounted to 61.1%.

On to `Cc1cc(C)c2c(n1)sc1c(NCc3ccc(OC(F)F)nc3)ncnc12` [Compound 203, N-[[6-(difluoromethoxy)-3-pyridyl]methyl]-7.9-dimethyl-pyrido[3′,2′:4,5] thieno[3,2-d]pyrimidin-4-amine], for which the concentration giving a half-maximal response (EC50) was found to be 4010 nM and the Emax came out at 44.5%.

For the compound `Cc1cc(C)c2c(n1)sc1c(NCc3ccc(S(C)(=O)=O)cc3)ncnc12` [Compound 204, 7,9-dimethyl-N-[(4-methylsulfonylphenyl)methyl]pyrido [3′,2′:4,5]thieno[3,2-d] pyrimidin-4-amine], the EC50 was 294 nM and the Emax turned out to be 34.5%.

In the case of `Cc1cc(C)c2c(n1)sc1c(NCc3cnc(C)nc3)ncnc12` [Compound 205, 7,9-dimethyl-N-[(2-methylpyrimidin-5-yl)methyl]pyrido[3′,2′:4,5] thieno[3,2-d] pyrimidin-4-amine], the EC50 was 1400 nM and the Emax is 54.2%.

With `Cc1cc(C)c2c(n1)sc1c(NCc3ccc(C(C)(C)O)cc3)ncnc12` [Compound 206, 2-[4-[[(7,9-dimethylpyrido [3′,2′:4,5]thieno[3,2-d]pyrimidin-4-yl)amino]methyl]phenyl]propan-2-ol], the EC50 is 910 nM and the Emax turned out to be 75.8%.

As to `Cc1cc(C)c2c(n1)sc1c(NC3CN(c4ncc(C(F)(F)F)cn4)C3)ncnc12` [Compound 207, 7,9-dimethyl-N-[1-[5-(trifluoromethyl)pyrimidin-2-yl]azetidin-3-yl]pyrido[3′,2′:4,5] thieno[3,2-d]pyrimidin-4-amine], the EC50 stood at 6550 nM and the Emax is 51.5%.

`Cc1cc(C)c2c(n1)sc1c(NC3CN(c4ccnc(C5(O)CCC5)c4)C3)ncnc12` [Compound 208, 1-[4-[3-[(7,9-dimethylpyrido [3′,2′:4,5]thieno[3,2-d]pyrimidin-4-yl)amino]azetidin-1-yl]-2-pyridyl]cyclobutanol]: the EC50 was 462 nM and the Emax is 75.4%.

What is called EC50 is the midpoint of the concentration-response curve. The term Emax denotes the size of the effect at its maximum, as opposed to the concentration needed.
